# Laboratory results published in patent US20170312207A1, “MOISTURIZING AGENT” (SHOWA DENKO K.K., priority 2014, published 2017).
# Key:
# [1] = test system: Normal human epidermal keratinocytes (NHEK cell); assay: Test for evaluating CE-forming ability; type: cell-based; conditions: NHEK cells, 1.8 mM Ca2+ medium, 1 μM, four days; purified water control 100
# Protocol: Normal human epidermal keratinocytes (NHEK cell manufactured by KURABO INDUSTRIES LTD.) were seeded on a 24 well plate at 1×10^5 cells/cm^2 and cultured at 37° C. under 5% CO2 to reach confluence. As a medium of NHEK cells, HuMedia-KG2 (product name, manufactured by KURABO INDUSTRIES LTD.) was used. After that, the medium was replaced to HuMedia-KG2 medium containing 1.8 mM Ca2+, the inositol derivative dissolved in purified water of Example 2 was added to the final concentration of 1 μM, and culturing was further performed for four days. As for a control, in place of the inositol derivative, the same amount of purified water was added to NHEK cells, and the cells were cultured in the same manner as above. In addition, for comparison, myo-inositol dissolved in purified water was added to NHEK cells in place of the inositol derivative, and the cells were cultured in the same manner as above. After four days of culturing, cells of each group were collected, removed of the supernatant, added with 2% sodium dodecyl sulfate (SDS)-20 mM dithiothreitol (DTT), and heated at 100° C. for 15 minutes. Next, the cells were added with 1% acetic acid-50% ethanol, centrifuged (at 15,000 rpm for five minutes), and removed of the supernatant. Next, the cells were added with 10 mM Tris-HCl-1 mM EDTA and observed with a microscope, and an amount of CE formation was counted. […]
# SPT3 gene = assay: Promoting effect on serine palmitoyltransferase expression: SPT3 gene; type: cell-based, human; conditions: SVHK cells, 10 μM, 48 hours; standardized to GAPDH; purified water control 1.00
# Protocol: (§1) Serine palmitoyltransferase (SPT) is known as a rate-limiting enzyme for ceramides synthesis. Here, effect of an inositol derivative on promoting SPT gene expression was examined by using human epidermal cells. Human epidermal cells (SVHK cells) which were established from introduction of SV40 gene into human epidermal cells, were seeded on a plastic petri dish at a seeding density of 10,000 cells/cm^2 and cultured for 24 hours in Dulbecco's Modified Eagle's Medium (DMEM, manufactured by Sigma-Aldrich Co. LLC.) containing 10% fetal bovine serum. […] Next, quantitative real-time PCR was performed using this cDNA as a template, and the expression levels of SPT gene in SVHK cells of each group were quantified. More specifically, the expression levels of SPT1, SPT2, and SPT3 genes which are subunits of SPT were quantified. In addition, the expression level of glyceraldehyde-3-phosphate dehydrogenase (GAPDH) which is a housekeeping gene in which variation is not observed in the expression by adding a compound, as an internal standard gene, was quantified, and based on the expression levels of GAPDH gene in SVHK cells of each group, the expression levels of SPT1, SPT2, and SPT3 genes were standardized. […]
# SPT2 gene = assay: Promoting effect on serine palmitoyltransferase expression: SPT2 gene; type: cell-based, human; conditions: SVHK cells, 10 μM, 48 hours; standardized to GAPDH; purified water control 1.00
# Protocol: as §1
# involucrin gene = assay: Promoting expression of CE-forming-related factor: involucrin gene, quantitative real-time PCR; type: cell-based, human; conditions: SVHK cells, 1 μM, 48 hours; standardized to GAPDH; purified water control 1.00
# Protocol: (§2) Loricrin, involucrin, and transglutaminase-1 are known as CE-forming-related factors. Here, effect of an inositol derivative on promoting expression of CE-forming-related factors was examined by using human epidermal cells. Human epidermal cells (SVHK cells) which were established from introduction of SV40 gene into human epidermal cells, were seeded on a plastic petri dish at a seeding density of 10,000 cells/cm^2 and cultured for 24 hours in Dulbecco's Modified Eagle's Medium (DMEM, manufactured by Sigma-Aldrich Co. LLC.) containing 10% fetal bovine serum. […] Next, quantitative real-time PCR was performed using this cDNA as a template, and the expression levels of loricrin gene, involucrin gene, and transglutaminase-1 (TG-1) gene in SVHK cells of each group were quantified, respectively. In addition, the expression level of glyceraldehyde-3-phosphate dehydrogenase (GAPDH) which is a housekeeping gene in which variation is not observed in the expression by adding a compound, as an internal standard gene, was quantified, and based on the expression levels of GAPDH gene in SVHK cells of each group, the expression levels of loricrin gene, involucrin gene, and TG-1 gene were standardized. […]
# filaggrin gene = assay: Promoting effect on filaggrin gene expression, quantitative real-time PCR; type: cell-based, human; conditions: SVHK cells, 10 μM, 48 hours; standardized to GAPDH; purified water control 1.00
# Protocol: (§3) Effect of an inositol derivative on promoting filaggrin gene expression was examined by using human epidermal cells. Human epidermal cells (SVHK cells) which were established from introduction of SV40 gene into human epidermal cells, were seeded on a plastic petri dish at a seeding density of 10,000 cells/cm^2 and cultured for 24 hours in Dulbecco's Modified Eagle's Medium (DMEM, manufactured by Sigma-Aldrich Co. LLC.) containing 10% fetal bovine serum. Next, to the medium of SVHK cells, the inositol derivatives dissolved in purified water of Examples 1 to 6 and Comparative Example 1 were added to the final concentration of 10 μM, and culturing was further performed for 48 hours. As for a control, in place of the inositol derivative, the same amount of purified water was added to SVHK cells, and the cells were cultured in the same manner as above. […] Next, quantitative real-time PCR was performed using this cDNA as a template, and the expression levels of filaggrin gene in SVHK cells of each group were quantified. In addition, the expression level of glyceraldehyde-3-phosphate dehydrogenase (GAPDH) which is a housekeeping gene in which variation is not observed in the expression by adding a compound, as an internal standard gene, was quantified, and based on the expression levels of GAPDH gene in SVHK cells of each group, the expression levels of filaggrin gene were standardized. […]
# AQP3 gene = assay: Promoting effect on AQP3 expression, quantitative real-time PCR; type: cell-based, human; conditions: SVHK cells, 1 μM, 48 hours; standardized to GAPDH; purified water control 1.00
# Protocol: as §3, with “Human epidermal” for “Effect of an inositol derivative on promoting filaggrin gene expression was examined by using human epidermal cells. Human epidermal”, “concentration of 1 μM, and” for “concentration of 10 μM, and”, “levels of AQP3 gene in” for “levels of filaggrin gene in”, “levels of AQP3 gene were” for “levels of filaggrin gene were”
# loricrin gene = assay: Promoting expression of CE-forming-related factor: loricrin gene, quantitative real-time PCR; type: cell-based, human; conditions: SVHK cells, 1 μM, 48 hours; standardized to GAPDH; purified water control 1.00
# Protocol: as §2
# SPT1 gene = assay: Promoting effect on serine palmitoyltransferase expression: SPT1 gene; type: cell-based, human; conditions: SVHK cells, 10 μM, 48 hours; standardized to GAPDH; purified water control 1.00
# Protocol: as §1
# [2] = test system: transglutaminase-1 (TG-1) gene; assay: Promoting expression of CE-forming-related factor: transglutaminase-1 (TG-1) gene, quantitative real-time PCR; type: cell-based, human; conditions: SVHK cells, 1 μM, 48 hours; standardized to GAPDH; purified water control 1.00
# Protocol: as §2
smiles,measurement,setting,value
"O[C@H]1[C@H](O)[C@@H](O)[C@H](O)[C@@H](O)[C@H]1O [Myo-inositol, myo-inositol]",Amount of CE formation (relative value),[1],123
same,Expression levels of gene (relative value) SPT3,SPT3 gene,1.64
same,Expression levels of gene (relative value) SPT2,SPT2 gene,2.49
same,Expression levels of gene (relative value) involucrin,involucrin gene,2.42
same,Expression levels of filaggrin gene (relative value),filaggrin gene,5.94
same,Expression levels of AQP3 gene (relative value),AQP3 gene,0.83
same,Expression levels of gene (relative value) lorierin,loricrin gene,0.39
same,Expression levels of gene (relative value) SPT1,SPT1 gene,2.01
same,Expression levels of gene (relative value) TG-1,[2],1.96
